Measurements taken from ChEMBL document CHEMBL3217451, “Structure-based optimization of the piperazino-containing 1,3-disubstituted ureas affording sub-nanomolar inhibitors of soluble epoxide hydrolase” (Medchemcomm, 2012).
Values after ≈ are worked out from the molar mass of the structure shown.

Experiments:
[1] = molecular target: T1, Bifunctional epoxide hydrolase 2 (Homo sapiens, UniProt P34913); assay: Inhibition of human recombinant soluble epoxide hydrolase using cyano(6-methoxy-naphthalen-2-yl)methyl-trans-[(3-phenyloxiran-2-yl)methyl]carbonate as substrate after 5 mins by fluorescence assay
T1 sequence (P34913 whole entry): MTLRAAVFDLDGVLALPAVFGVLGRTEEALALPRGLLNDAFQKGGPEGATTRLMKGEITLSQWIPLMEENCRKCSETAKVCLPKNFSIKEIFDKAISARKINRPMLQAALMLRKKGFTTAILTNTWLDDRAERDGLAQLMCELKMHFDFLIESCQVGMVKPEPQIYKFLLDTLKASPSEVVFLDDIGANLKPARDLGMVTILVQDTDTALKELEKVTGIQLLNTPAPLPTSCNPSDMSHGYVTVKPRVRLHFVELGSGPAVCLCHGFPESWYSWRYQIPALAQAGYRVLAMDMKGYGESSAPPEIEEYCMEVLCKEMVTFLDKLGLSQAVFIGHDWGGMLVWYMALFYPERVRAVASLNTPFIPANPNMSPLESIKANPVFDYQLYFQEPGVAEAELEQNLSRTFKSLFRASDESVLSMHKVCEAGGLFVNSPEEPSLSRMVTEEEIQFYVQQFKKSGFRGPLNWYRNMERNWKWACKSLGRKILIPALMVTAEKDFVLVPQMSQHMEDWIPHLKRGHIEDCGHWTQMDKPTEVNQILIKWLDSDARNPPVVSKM

[2] = Solubility of the compound in sodium phosphate buffer at pH 7.4 at 25 +/- 1 degC; type: physicochemical
[3] = molecular target: T1, Bifunctional epoxide hydrolase 2; assay: Inhibition of soluble epoxide hydrolase (unknown origin)

IC50 [1] [µM] | solubility [2] [mg/mL] | IC50 [3] [µM] | SMILES
0.0671 | 1.96 (≈ 5120 µM) | – | O=C(Nc1ccc(C(=O)N2CCNCC2)cc1)NC12CC3CC(CC(C3)C1)C2
– | – | 1.37 | O=C(NCC[C@H]1CN[C@@H](Cc2ccccc2)CN1)NC12CC3CC(CC(C3)C1)C2
0.133 | 1.15 (≈ 3010 µM) | – | O=C(Nc1cccc(C(=O)N2CCNCC2)c1)NC12CC3CC(CC(C3)C1)C2
0.0463 | 0.89 (≈ 2100 µM) | – | CC(=O)N1CCN(C(=O)c2cccc(NC(=O)NC34CC5CC(CC(C5)C3)C4)c2)CC1
0.0073 | 0.21 (≈ 435 µM) | – | CC(C)(C)OC(=O)N1CCN(C(=O)c2cccc(NC(=O)NC34CC5CC(CC(C5)C3)C4)c2)CC1
0.0418 | 0.13 (≈ 282 µM) | – | CS(=O)(=O)N1CCN(C(=O)c2cccc(NC(=O)NC34CC5CC(CC(C5)C3)C4)c2)CC1
0.009 | 0.53 (≈ 1250 µM) | – | CC(=O)N1CCN(C(=O)c2ccc(NC(=O)NC34CC5CC(CC(C5)C3)C4)cc2)CC1
0.0005 | 0.5 (≈ 1040 µM) | – | CC(C)(C)OC(=O)N1CCN(C(=O)c2ccc(NC(=O)NC34CC5CC(CC(C5)C3)C4)cc2)CC1
0.001 | 0.86 (≈ 1870 µM) | – | CS(=O)(=O)N1CCN(C(=O)c2ccc(NC(=O)NC34CC5CC(CC(C5)C3)C4)cc2)CC1
0.142 | 0.13 (≈ 257 µM) | – | CC(=O)N1CCN(CCCOc2ccc(NC(=O)NC34CC5CC(CC(C5)C3)C4)c3cccnc23)CC1
0.0068 | 0.15 (≈ 266 µM) | – | CC(C)(C)OC(=O)N1CCN(CCCOc2ccc(NC(=O)NC34CC5CC(CC(C5)C3)C4)c3cccnc23)CC1
0.0773 | 8 (≈ 18000 µM) | – | O=C(NC1CCN(C(=O)CCC(=O)N2CCNCC2)CC1)NC12CC3CC(CC(C3)C1)C2
0.0447 | – | – | CC(=O)N1CCN(C(=O)CCC(=O)N2CCC(NC(=O)NC34CC5CC(CC(C5)C3)C4)CC2)CC1
0.0188 | 0.47 (≈ 861 µM) | – | CC(C)(C)OC(=O)N1CCN(C(=O)CCC(=O)N2CCC(NC(=O)NC34CC5CC(CC(C5)C3)C4)CC2)CC1
100 | – | – | O=C(NC12CC3CC(CC(C3)C1)C2)N1CCNCC1
0.321 | – | – | CC(=O)N1CCN(C(=O)NC23CC4CC(CC(C4)C2)C3)CC1
0.49 | – | – | CC(C)(C)OC(=O)N1CCN(C(=O)NC23CC4CC(CC(C4)C2)C3)CC1
0.0637 | – | – | CN1CCN(C(=O)NC23CC4CC(CC(C4)C2)C3)CC1
0.0006 | 0.16 (≈ 342 µM) | – | CC(=O)N1CCN(CCCCOc2cccc(NC(=O)CC34CC5CC(CC(C5)C3)C4)c2)CC1
0.0004 | 0.18 (≈ 342 µM) | – | CC(C)(C)OC(=O)N1CCN(CCCCOc2cccc(NC(=O)CC34CC5CC(CC(C5)C3)C4)c2)CC1
0.0005 | 0.17 (≈ 337 µM) | – | CS(=O)(=O)N1CCN(CCCCOc2cccc(NC(=O)CC34CC5CC(CC(C5)C3)C4)c2)CC1
